# Results as given in PubChem BioAssay (NCI).
# Values joined by “and” are separate entries in the source; they are usually repeats but may differ in a detail not shown here. Equal entries are not always repeated.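 Cells were grown in 96-well plates and exposed to each compound for 48 hours at five concentrations; endpoints were interpolated linearly between bracketing concentrations, or set to the highest concentration if not reached. Here, GI50 denotes the concentration required for 50% inhibition of growth. Definition used: TGI = concentration required for complete inhibition of growth.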
# Tests used:
# Test in all cases: NCI tumour cell line growth inhibition, 48 h
# BT-549 breast = test system: BT-549 breast
# DLD-1 colon = test system: DLD-1 colon
# DMS 114 small cell lung = test system: DMS 114 small cell lung
# DMS 273 small cell lung = test system: DMS 273 small cell lung
# HOP-18 NSCLC = test system: HOP-18 NSCLC
# HOP-92 NSCLC = test system: HOP-92 NSCLC
# KM20L2 colon = test system: KM20L2 colon
# M19-MEL melanoma = test system: M19-MEL melanoma
# NCI-H226 lung = test system: NCI-H226 lung
# NCI-H23 lung = test system: NCI-H23 lung
# P388 leukemia = test system: P388 leukemia
# P388/ADR leukemia = test system: P388/ADR leukemia
# SN12K1 renal = test system: SN12K1 renal
# SNB-78 CNS = test system: SNB-78 CNS
# UACC-257 melanoma = test system: UACC-257 melanoma
# XF 498 CNS = test system: XF 498 CNS
compound,measurement,setting,value
COc1ccc(CC2C(=O)NC(C)C(=O)N(C)C3C(=O)N(C)C(Cc4ccc(O)c(c4)Oc4ccc(cc4)C3O)C(=O)NC(C)C(=O)NC(C)C(=O)N2C)cc1 (centres undefined),TGI,BT-549 breast,10 nM
same,GI50,DLD-1 colon,40.9 nM
same,TGI,DLD-1 colon,3450 nM and 581 nM
same,GI50,DMS 114 small cell lung,12.8 nM
same,TGI,DMS 114 small cell lung,20.6 nM and 42.8 nM
same,GI50,DMS 273 small cell lung,21.5 nM
same,TGI,DMS 273 small cell lung,117 nM and 52.2 nM
same,GI50,HOP-18 NSCLC,18.4 nM
same,TGI,HOP-18 NSCLC,43.5 nM and 40.1 nM
same,GI50,HOP-92 NSCLC,3.03 nM
same,TGI,HOP-92 NSCLC,28.3 nM and 91.8 nM and 26.9 nM
same,TGI,KM20L2 colon,350 nM and 471 nM
same,GI50,M19-MEL melanoma,7.08 nM
same,TGI,M19-MEL melanoma,130 nM and 54.3 nM
same,GI50,NCI-H226 lung,12.5 nM
same,TGI,NCI-H226 lung,23.8 nM and 25.7 nM
same,GI50,NCI-H23 lung,7.11 nM
same,TGI,NCI-H23 lung,55.7 nM and 34.1 nM
same,GI50,P388 leukemia,14.9 nM
same,TGI,P388 leukemia,79.2 nM and 175 nM
same,TGI,P388/ADR leukemia,8520 nM and 12700 nM
same,GI50,SN12K1 renal,13.5 nM
same,TGI,SN12K1 renal,32.1 nM and 34.2 nM
same,GI50,SNB-78 CNS,12.5 nM
same,TGI,SNB-78 CNS,41.1 nM and 26.4 nM
same,GI50,UACC-257 melanoma,16 nM
same,TGI,UACC-257 melanoma,66.3 nM and 32 nM
same,GI50,XF 498 CNS,2.38 nM
same,TGI,XF 498 CNS,17.9 nM and 31.3 nM
